Measurements from PubChem BioAssay (NCI).
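Growth conditions: 96-well plates. Treatment: test compound, 48 hours, 5 concentrations. Analysis: linear interpolation between bracketing concentrations; unreached endpoints set to highest concentration. TGI is the concentration that stops growth completely.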

Key:
Experiment in all cases: growth of human tumour cells (NCI), 48 h
A549 NSCLC = system: A549 NSCLC
OVCAR-4 ovarian = system: OVCAR-4 ovarian
NCI-H522 lung = system: NCI-H522 lung
SK-MEL-5 melanoma = system: SK-MEL-5 melanoma
NCI-H226 lung = system: NCI-H226 lung
SNB-78 CNS = system: SNB-78 CNS
OVCAR-3 ovarian = system: OVCAR-3 ovarian
SK-OV-3 ovarian = system: SK-OV-3 ovarian
UACC-257 melanoma = system: UACC-257 melanoma
SR leukemia = system: SR leukemia
HL-60(TB) leukemia = system: HL-60(TB) leukemia
SK-MEL-28 melanoma = system: SK-MEL-28 melanoma
CCRF-CEM leukemia = system: CCRF-CEM leukemia
RPMI-8226 leukemia = system: RPMI-8226 leukemia
HT29 colon = system: HT29 colon
HOP-18 NSCLC = system: HOP-18 NSCLC
SN12C renal = system: SN12C renal
XF 498 CNS = system: XF 498 CNS
A498 renal = system: A498 renal
HCC-2998 colon = system: HCC-2998 colon
M14 melanoma = system: M14 melanoma
LXFL 529 NSCLC = system: LXFL 529 NSCLC
LOX IMVI melanoma = system: LOX IMVI melanoma
786-0 renal = system: 786-0 renal
DLD-1 colon = system: DLD-1 colon
IGROV1 ovarian = system: IGROV1 ovarian
HCT-116 colon = system: HCT-116 colon
OVCAR-8 ovarian = system: OVCAR-8 ovarian
SF-295 CNS = system: SF-295 CNS
OVCAR-5 ovarian = system: OVCAR-5 ovarian
MOLT-4 leukemia = system: MOLT-4 leukemia
RXF-631 renal = system: RXF-631 renal
RXF 393 renal = system: RXF 393 renal
K-562 leukemia = system: K-562 leukemia
ACHN renal = system: ACHN renal
HCT-15 colon = system: HCT-15 colon
EKVX NSCLC = system: EKVX NSCLC
SF-539 CNS = system: SF-539 CNS
HOP-62 NSCLC = system: HOP-62 NSCLC
UO-31 renal = system: UO-31 renal
TK-10 renal = system: TK-10 renal
NCI-H23 lung = system: NCI-H23 lung
MALME-3M melanoma = system: MALME-3M melanoma
SW-620 colon = system: SW-620 colon
COLO 205 colon = system: COLO 205 colon
SF-268 CNS = system: SF-268 CNS
DMS 114 small cell lung = system: DMS 114 small cell lung
SNB-19 CNS = system: SNB-19 CNS
KM12 colon = system: KM12 colon
NCI-H460 lung = system: NCI-H460 lung
U251 CNS = system: U251 CNS
SNB-75 CNS = system: SNB-75 CNS
UACC-62 melanoma = system: UACC-62 melanoma
KM20L2 colon = system: KM20L2 colon
HOP-92 NSCLC = system: HOP-92 NSCLC
SK-MEL-2 melanoma = system: SK-MEL-2 melanoma
M19-MEL melanoma = system: M19-MEL melanoma

Measured: TGI

C/C(=N\NC(=S)NC(CCC(=O)O)C(=O)O)c1ccccn1 (configuration not stated)
> 100 µM: A549 NSCLC | OVCAR-4 ovarian | NCI-H522 lung | SK-MEL-5 melanoma | NCI-H226 lung | SNB-78 CNS | OVCAR-3 ovarian | SK-OV-3 ovarian | UACC-257 melanoma | SR leukemia | HL-60(TB) leukemia | SK-MEL-28 melanoma | CCRF-CEM leukemia | RPMI-8226 leukemia | HT29 colon | HOP-18 NSCLC | SN12C renal | XF 498 CNS | A498 renal | HCC-2998 colon | M14 melanoma | LXFL 529 NSCLC | LOX IMVI melanoma | 786-0 renal | DLD-1 colon | IGROV1 ovarian | HCT-116 colon | OVCAR-8 ovarian | SF-295 CNS | OVCAR-5 ovarian | MOLT-4 leukemia | RXF-631 renal | RXF 393 renal | K-562 leukemia | ACHN renal | HCT-15 colon | EKVX NSCLC | SF-539 CNS | HOP-62 NSCLC | UO-31 renal | TK-10 renal | NCI-H23 lung | MALME-3M melanoma | SW-620 colon | COLO 205 colon | SF-268 CNS | DMS 114 small cell lung | SNB-19 CNS | KM12 colon | NCI-H460 lung | U251 CNS | SNB-75 CNS | UACC-62 melanoma | KM20L2 colon | HOP-92 NSCLC | SK-MEL-2 melanoma | M19-MEL melanoma
